Results taken from the NIST ThermoML archive (doi:10.1016/j.jct.2017.01.016).
Numbers after ± are expanded uncertainties.

Experiment: xn = mol fraction of the nth substance listed
Details: 101 kPa, Liquid; for viscosity: Capillary tube (Ostwald / Ubbelohde) method; for speed of sound: Frequency=3 MHz, Linear variable-path acoustic interferometer

Cc1ccccc1C [1,2-dimethylbenzene] + C1COCCO1
viscosity (293.15 K, x2 = 0): 0.8066 ± 0.017 mPa·s | viscosity (293.15 K, x2 = 0.0672): 0.8314 ± 0.017 mPa·s | viscosity (293.15 K, x2 = 0.1391): 0.8598 ± 0.018 mPa·s | viscosity (293.15 K, x2 = 0.2103): 0.8896 ± 0.019 mPa·s | viscosity (293.15 K, x2 = 0.2853): 0.9224 ± 0.019 mPa·s | viscosity (293.15 K, x2 = 0.3543): 0.9541 ± 0.02 mPa·s | viscosity (293.15 K, x2 = 0.4293): 0.9899 ± 0.021 mPa·s | viscosity (293.15 K, x2 = 0.5092): 1.03 ± 0.021 mPa·s | viscosity (293.15 K, x2 = 0.581): 1.067 ± 0.022 mPa·s | viscosity (293.15 K, x2 = 0.6518): 1.104 ± 0.023 mPa·s | viscosity (293.15 K, x2 = 0.7248): 1.144 ± 0.024 mPa·s | viscosity (293.15 K, x2 = 0.7888): 1.18 ± 0.025 mPa·s | viscosity (293.15 K, x2 = 0.8595): 1.221 ± 0.025 mPa·s | viscosity (293.15 K, x2 = 0.9298): 1.263 ± 0.026 mPa·s | speed of sound (293.15 K, x2 = 0): 1367.7 ± 1.7 m/s | speed of sound (293.15 K, x2 = 0.0672): 1361.7 ± 1.7 m/s | speed of sound (293.15 K, x2 = 0.1391): 1355.5 ± 1.7 m/s | speed of sound (293.15 K, x2 = 0.2103): 1350 ± 1.7 m/s | speed of sound (293.15 K, x2 = 0.2853): 1345.3 ± 1.7 m/s | speed of sound (293.15 K, x2 = 0.3543): 1341.7 ± 1.7 m/s | speed of sound (293.15 K, x2 = 0.4293): 1338.8 ± 1.7 m/s | speed of sound (293.15 K, x2 = 0.5092): 1336.9 ± 1.7 m/s | speed of sound (293.15 K, x2 = 0.581): 1336.5 ± 1.7 m/s | speed of sound (293.15 K, x2 = 0.6518): 1337.4 ± 1.7 m/s | speed of sound (293.15 K, x2 = 0.7248): 1339.8 ± 1.7 m/s | speed of sound (293.15 K, x2 = 0.7888): 1343.5 ± 1.7 m/s | speed of sound (293.15 K, x2 = 0.8595): 1349.3 ± 1.7 m/s | speed of sound (293.15 K, x2 = 0.9298): 1357.1 ± 1.7 m/s | viscosity (298.15 K, x2 = 0): 0.7576 ± 0.016 mPa·s | viscosity (298.15 K, x2 = 0.0672): 0.7791 ± 0.016 mPa·s | viscosity (298.15 K, x2 = 0.1391): 0.8033 ± 0.017 mPa·s | viscosity (298.15 K, x2 = 0.2103): 0.829 ± 0.017 mPa·s | viscosity (298.15 K, x2 = 0.2853): 0.8576 ± 0.018 mPa·s | viscosity (298.15 K, x2 = 0.3543): 0.8851 ± 0.018 mPa·s | viscosity (298.15 K, x2 = 0.4293): 0.9162 ± 0.019 mPa·s | viscosity (298.15 K, x2 = 0.5092): 0.9509 ± 0.02 mPa·s | viscosity (298.15 K, x2 = 0.581): 0.9833 ± 0.021 mPa·s | viscosity (298.15 K, x2 = 0.6518): 1.016 ± 0.021 mPa·s | viscosity (298.15 K, x2 = 0.7248): 1.052 ± 0.022 mPa·s | viscosity (298.15 K, x2 = 0.7888): 1.083 ± 0.023 mPa·s | viscosity (298.15 K, x2 = 0.8595): 1.12 ± 0.023 mPa·s | viscosity (298.15 K, x2 = 0.9298): 1.157 ± 0.024 mPa·s | speed of sound (298.15 K, x2 = 0): 1347.5 ± 1.7 m/s | speed of sound (298.15 K, x2 = 0.0672): 1341.5 ± 1.7 m/s | speed of sound (298.15 K, x2 = 0.1391): 1335.1 ± 1.7 m/s | speed of sound (298.15 K, x2 = 0.2103): 1329.6 ± 1.7 m/s | speed of sound (298.15 K, x2 = 0.2853): 1324.8 ± 1.7 m/s | speed of sound (298.15 K, x2 = 0.3543): 1321 ± 1.7 m/s | speed of sound (298.15 K, x2 = 0.4293): 1317.9 ± 1.7 m/s | speed of sound (298.15 K, x2 = 0.5092): 1315.9 ± 1.7 m/s | speed of sound (298.15 K, x2 = 0.581): 1315.4 ± 1.7 m/s | speed of sound (298.15 K, x2 = 0.6518): 1316.2 ± 1.7 m/s | speed of sound (298.15 K, x2 = 0.7248): 1318.3 ± 1.7 m/s | speed of sound (298.15 K, x2 = 0.7888): 1321.9 ± 1.7 m/s | speed of sound (298.15 K, x2 = 0.8595): 1327.4 ± 1.7 m/s | speed of sound (298.15 K, x2 = 0.9298): 1334.9 ± 1.7 m/s | viscosity (303.15 K, x2 = 0): 0.7132 ± 0.015 mPa·s | viscosity (303.15 K, x2 = 0.0672): 0.7321 ± 0.015 mPa·s | viscosity (303.15 K, x2 = 0.1391): 0.7527 ± 0.016 mPa·s | viscosity (303.15 K, x2 = 0.2103): 0.7747 ± 0.016 mPa·s | viscosity (303.15 K, x2 = 0.2853): 0.7992 ± 0.017 mPa·s | viscosity (303.15 K, x2 = 0.3543): 0.823 ± 0.017 mPa·s | viscosity (303.15 K, x2 = 0.4293): 0.8502 ± 0.018 mPa·s | viscosity (303.15 K, x2 = 0.5092): 0.8806 ± 0.018 mPa·s | viscosity (303.15 K, x2 = 0.581): 0.909 ± 0.019 mPa·s | viscosity (303.15 K, x2 = 0.6518): 0.9382 ± 0.02 mPa·s | viscosity (303.15 K, x2 = 0.7248): 0.9693 ± 0.02 mPa·s | viscosity (303.15 K, x2 = 0.7888): 0.9977 ± 0.021 mPa·s | viscosity (303.15 K, x2 = 0.8595): 1.03 ± 0.021 mPa·s | viscosity (303.15 K, x2 = 0.9298): 1.063 ± 0.022 mPa·s | speed of sound (303.15 K, x2 = 0): 1329.4 ± 1.7 m/s | speed of sound (303.15 K, x2 = 0.0672): 1323 ± 1.7 m/s | speed of sound (303.15 K, x2 = 0.1391): 1316.5 ± 1.7 m/s | speed of sound (303.15 K, x2 = 0.2103): 1311 ± 1.7 m/s | speed of sound (303.15 K, x2 = 0.2853): 1306 ± 1.7 m/s | speed of sound (303.15 K, x2 = 0.3543): 1302 ± 1.6 m/s | speed of sound (303.15 K, x2 = 0.4293): 1298.6 ± 1.6 m/s | speed of sound (303.15 K, x2 = 0.5092): 1296.3 ± 1.6 m/s | speed of sound (303.15 K, x2 = 0.581): 1295.5 ± 1.6 m/s | speed of sound (303.15 K, x2 = 0.6518): 1296 ± 1.6 m/s | speed of sound (303.15 K, x2 = 0.7248): 1298 ± 1.6 m/s | speed of sound (303.15 K, x2 = 0.7888): 1301.3 ± 1.6 m/s | speed of sound (303.15 K, x2 = 0.8595): 1306.5 ± 1.7 m/s | speed of sound (303.15 K, x2 = 0.9298): 1313.7 ± 1.7 m/s
